Reference: patent US11377442B2, “Small molecule agonists and antagonists of NR2F6 activity” (ZANDER THERAPEUTICS, INC., priority 2016, dated 2022)
Read-outs that look alike come from different tables or passages of the source.

Columns and labels:
Assay type in all cases: cell-based
ERα [1] = target: T1, ERα (Homo sapiens, UniProt P03372); experiment: Counterscreening, Firefly signal with ERα transient transfection (Firefly_ERa); settings: 10 uM
T1 construct: expressed in transfected cells
T1 sequence (P03372 1-595): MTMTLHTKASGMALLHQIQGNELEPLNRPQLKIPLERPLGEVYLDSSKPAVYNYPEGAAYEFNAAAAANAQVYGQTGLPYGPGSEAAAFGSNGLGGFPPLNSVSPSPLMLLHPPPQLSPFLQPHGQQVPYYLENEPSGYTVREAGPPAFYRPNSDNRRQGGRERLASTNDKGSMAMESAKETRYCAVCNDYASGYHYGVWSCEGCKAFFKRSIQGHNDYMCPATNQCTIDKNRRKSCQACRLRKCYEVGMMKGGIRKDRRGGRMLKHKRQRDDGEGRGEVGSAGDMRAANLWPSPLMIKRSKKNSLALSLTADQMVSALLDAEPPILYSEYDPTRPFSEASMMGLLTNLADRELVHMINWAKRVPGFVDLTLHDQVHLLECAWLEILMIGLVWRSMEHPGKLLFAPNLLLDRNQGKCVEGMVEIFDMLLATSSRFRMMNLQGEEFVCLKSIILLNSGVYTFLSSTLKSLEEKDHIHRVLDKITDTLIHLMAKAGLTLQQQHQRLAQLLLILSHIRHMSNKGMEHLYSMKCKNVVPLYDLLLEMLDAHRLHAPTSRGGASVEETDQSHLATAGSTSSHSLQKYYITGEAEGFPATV
Experimental: The methodology for screening candidate compounds as NR2F6 agonists was as follows: For primary screening, hit criteria was ACT %>DMSO control+5*SD (DSO control) at 10 μM, or any compound with S/B>2. For rescreening, hit criteria was ACT %>DMSO control+3*SD (DSO control) in each replicate at 10 μM. For counterscreening, hit criteria was mean ACT<DMSO control+3*SD (DMSO control) with ERα transient transfection in duplicate at 10 μM.

ERα [2] = target: T1, ERα; experiment: as above
Renilla_ERa = experiment: Renilla signal in ERα counterscreen (Renilla_ERa); settings: for fold induction at 2 µM / fold induction at 10 µM / fold induction at 40 µM: read-out: Renilla ERalpha transient, cmpd/DMSO (mean)
Renilla = Renilla signal in NR2F6 agonist screening, cmpd/DMSO; settings: for fold induction at 2 µM / fold induction at 10 µM / fold induction at 40 µM: Renilla, read-out: Renilla F4, cmpd/DMSO (mean)
NR2F6 = target: T2, NR2F6 (Homo sapiens, UniProt P10588); experiment: NR2F6 agonist screening, Firefly signal cmpd/DMSO
T2 construct: expressed in transfected cells; also transient transfection
T2 sequence (P10588 1-404): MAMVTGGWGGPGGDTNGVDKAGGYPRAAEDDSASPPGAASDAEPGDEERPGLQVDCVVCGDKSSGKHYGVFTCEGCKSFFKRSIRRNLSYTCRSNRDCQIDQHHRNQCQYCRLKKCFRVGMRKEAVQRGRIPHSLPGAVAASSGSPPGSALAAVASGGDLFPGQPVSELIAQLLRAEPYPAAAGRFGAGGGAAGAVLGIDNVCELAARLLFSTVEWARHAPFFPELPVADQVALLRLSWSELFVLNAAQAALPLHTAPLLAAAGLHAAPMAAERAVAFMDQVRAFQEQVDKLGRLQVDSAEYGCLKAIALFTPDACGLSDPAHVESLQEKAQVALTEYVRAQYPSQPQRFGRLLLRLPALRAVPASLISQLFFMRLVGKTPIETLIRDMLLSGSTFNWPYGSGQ

Firefly ERalpha transient, cmpd/DMSO (mean) (ERα [1])	Firefly ERalpha transient, cmpd/DMSO (mean) (ERα [2]; 2 uM)	Firefly ERalpha transient, cmpd/DMSO (mean) (ERα [2]; 40 uM)	Firefly F4, cmpd/DMSO (mean) (NR2F6; 2 uM, clone F4)	Firefly F4, cmpd/DMSO (mean) (NR2F6; 10 uM, clone F4)	Firefly F4, cmpd/DMSO (mean) (NR2F6; 40 uM, clone F4)	SMILES	fold induction at 2 µM (Renilla_ERa; 2 uM)	fold induction at 10 µM (Renilla_ERa; 10 uM)	fold induction at 40 µM (Renilla_ERa; 40 uM)	fold induction at 2 µM (Renilla; 2 uM, clone F4)	fold induction at 10 µM (Renilla; 10 uM, clone F4)	fold induction at 40 µM (Renilla; 40 uM, clone F4)	other results
1.2	1.2	0.7	0.8	1.3	0.8	O=c1cccc2n1CC1CC2CN(c2nc(NCCC3=CCCCC3)nc(N3CCCC3)n2)C1 (stereo not shown) [Compound 32]	1.2	1.3	1.1	1.2	1.4	1	–
1.2	1.0	6.7	1.3	1.1	1.1	Cc1cc(C)c2ncc(C(=O)OC(C)C)c(NCCCN(C)C)c2c1 [Compound Z29]	0.8	1.2	0.7	0.8	0.9	0.5	–
1.0	0.9	1.7	0.9	1.3	2.0	COC(=O)c1[nH]c2c(c(C(F)(F)F)nc3ccc(OC)cc32)c1N [Compound Z47]	1.2	1.4	1.2	1.1	1.2	1.7	–
0.8	1.1	0.4	1.3	0.6	0.9	CC1CCN(c2nc(N3CCC(C)CC3)nc(N3CCn4c(cccc4=O)C3)n2)CC1 [Compound 36]	–	–	–	–	–	–	Renilla ERalpha transient, cmpd/DMSO (mean) (Renilla_ERa; 2 uM): 1.2; Renilla ERalpha transient, cmpd/DMSO (mean) (Renilla_ERa; 10 uM): 1.1; Renilla ERalpha transient, cmpd/DMSO (mean) (Renilla_ERa; 40 uM): 0.3; Renilla F4, cmpd/DMSO (mean) (Renilla; 2 uM, clone F4): 1.2; Renilla F4, cmpd/DMSO (mean) (Renilla; 10 uM, clone F4): 0.8; Renilla F4, cmpd/DMSO (mean) (Renilla; 40 uM, clone F4): 0.5

More lines, now with the values behind:

SMILES	Firefly ERalpha transient, cmpd/DMSO (mean) (ERα [1])	Firefly ERalpha transient, cmpd/DMSO (mean) (ERα [2]; 2 uM)	Firefly ERalpha transient, cmpd/DMSO (mean) (ERα [2]; 40 uM)	Firefly F4, cmpd/DMSO (mean) (NR2F6; 2 uM, clone F4)	Firefly F4, cmpd/DMSO (mean) (NR2F6; 10 uM, clone F4)	Firefly F4, cmpd/DMSO (mean) (NR2F6; 40 uM, clone F4)	fold induction at 2 µM (Renilla_ERa; 2 uM)	fold induction at 10 µM (Renilla_ERa; 10 uM)	fold induction at 40 µM (Renilla_ERa; 40 uM)	fold induction at 2 µM (Renilla; 2 uM, clone F4)	fold induction at 10 µM (Renilla; 10 uM, clone F4)	fold induction at 40 µM (Renilla; 40 uM, clone F4)	other results
CCOC(=O)c1cnc2c(Cl)cc(Cl)cc2c1NCCCN1CCCCC1 [Compound Z37]	1.5	1.1	1.2	1.0	1.4	0.7	1	1.7	0.7	1	0.9	0.5	–
COc1ccc(-c2cc3n(n2)C(N)=C(C#N)C(c2c[nH]c4ccccc24)(C(F)(F)F)N3)cc1OC (stereo not shown) [Compound Z44]	1.2	1.2	1.0	0.8	0.8	0.4	1.1	0.9	0.5	1.7	1.5	0.3	–
CCOC(=O)c1cnc2ccc(C)cc2c1NCCCN(C)C [Compound Z33]	1.8	2.1	8.8	1.7	2.0	6.6	1	1.5	0.9	1.1	1	0.6	activity (in words) (NR2F6; screening result): particularly good activity
Cc1ccc(CCCNc2c(C#N)c(C(F)(F)F)nc3ccc(Oc4ccccc4)cc23)cc1 [Compound Z42]	1.8	1.5	1.1	0.9	0.9	0.6	1.1	0.9	0.7	1.2	0.9	0.7	–
CCOC(=O)c1cnc2c(C)cc(C)cc2c1NCc1ccc(Cl)cc1 [Compound Z75]	–	–	–	–	–	–	–	–	–	–	–	–	Firefly ERalpha transient, cmpd/DMSO (mean) (ERα [1]; Table 15): 1.9; Firefly ERalpha transient, cmpd/DMSO (mean) (ERα [2]; Table 15, 2 uM): 1.1; Firefly ERalpha transient, cmpd/DMSO (mean) (ERα [2]; Table 15, 40 uM): 0.9; fold induction at 2 µM (Renilla_ERa; Table 15, 2 uM): 1; fold induction at 10 µM (Renilla_ERa; Table 15, 10 uM): 0.9; fold induction at 40 µM (Renilla_ERa; Table 15, 40 uM): 0.7; fold induction at 2 µM (Renilla; Table 15, 2 uM): 1.1; fold induction at 10 µM (Renilla; Table 15, 10 uM): 1; fold induction at 40 µM (Renilla; Table 15, 40 uM): 0.8; Firefly F4, cmpd/DMSO (mean) (NR2F6; Table 15, 2 uM): 0.9; Firefly F4, cmpd/DMSO (mean) (NR2F6; Table 15, 10 uM): 1.2; Firefly F4, cmpd/DMSO (mean) (NR2F6; Table 15, 40 uM): 0.8
